Measured values: patent publication US12364696B2, “Treatment of autoimmune disease” (priority 2019, dated 2025)
Like-named read-outs stand apart in the source and are kept apart here.

Assays:
[1] = test system: patients with alopecia areata; conditions: oral tofacitinib 5 mg twice daily for 6 months; cited from earlier work
[2] = test system: patients with moderate to severe, treatment-resistant alopecia areata; conditions: for Mean change from baseline in Assessment of Quality of Life-8D (AQoL-8D) score at Week 28: n = 13; for Mean change from baseline in Alopecia Areata Symptom Impact Scale (AASIS) score at Week 28 - Global Symptom Impact Score / Mean change from baseline in Alopecia Areata Symptom Impact Scale (AASIS) score at Week 28 - Scalp Hair Loss Score: n = 14
[3] = test system: male patients with alopecia areata of the beard (BAA)
[4] = Pharmacokinetics of sublingual tofacitinib, plasma LC MS/MS; format: in vivo, human; conditions: for concentration at 24 h: other: sublingual
Method: Blood samples were left to coagulate at room temperature for 20 minutes before centrifuging at 3500 rotations per minute for 15 minutes. The resulting separated plasma was extracted and stored at −20 degrees Celsius prior to processing using the liquid chromatography tandem mass spectrometry (LC MS/MS) method.
The mobile phase consisted of (A) 5 mM ammonium acetate pH 4 and (B) methanol. The gradient profile developed was: 0-2.0 min, 90% A, 10% B; 2.0-3.0 min, 30% A, 70% B; 3.0-4.0 min, 90% A, 10% B. A Shimadzu LC MS/MS-8050 triple quadrupole mass spectrometer (Shimadzu, Kyoto, Japan) was used to perform the mass spectrometry. MS/MS analysis was performed in positive ion mode using electrospray ionization conditions.

[5] = sublingual, 5 mg tablets, 3 months
[6] = sublingual, 5 mg tablets, 3 months, n = 16
[7] = sublingual, listed as sublingual tofacitinib
[8] = BAA subtype multiple patches, % of n = 45
[9] = BAA subtype solitary patch, % of n = 45
[10] = BAA subtype total beard loss, % of n = 45
[11] = all patients, n = 45 (21 oral, 24 sublingual)
[12] = degree of scalp hair regrowth Complete
[13] = degree of scalp hair regrowth Complete, % of n = 45
[14] = degree of scalp hair regrowth None
[15] = degree of scalp hair regrowth None, % of n = 45
[16] = degree of scalp hair regrowth Partial
[17] = degree of scalp hair regrowth Partial, % of n = 45

In the case of `C[C@@H]1CCN(C(=O)CC#N)C[C@@H]1N(C)c1ncnc2[nH]ccc12` [tofacitinib], the Response rate [1] is listed as 64.9%, the “Changes in blood biochemistry” value ([2]; human, in vivo) is listed as “no clinically significant changes” and the Serious adverse events ([2]; human, in vivo) is listed as “no serious adverse events”. The “Withdrawals secondary to adverse events” value ([2]; human, in vivo) was “no withdrawals secondary to adverse events”, the “Good grade respondents (50-75%), proportion” value [2, 5] was 1/16 and the “High grade respondents (75-100%), proportion” value [2, 5] was 1/16. The “Low grade respondents (15-29% reduction in SALT score at Week 28), proportion” value [2, 5] was 3/16, the “Mean reduction in SALT score of the two patients who achieved >50% reduction” value [2, 5] was 60.3% and the “Medium grade respondents (30-49%), proportion” value [2, 5] was 1/16. The “Participants achieving at least 1 grade improvement in eyebrow assessment scale at Week 28, proportion” value [2, 5] was 8/16, the “Participants achieving at least 1 grade improvement in eyelash assessment scale at Week 28, proportion” value [2, 5] was 6/16 and the “Participants who achieved a 100% reduction in SALT score at Week 28” value [2, 5] was “No participants”. For the same compound, the “Patients who achieved a >50% reduction in SALT score” value [2, 5] was 12.5%, the “Mean reduction from baseline (Week 16) of SALT score at Week 28” value [2, 6] was 15.57% and the “Participants achieving at least 1 grade improvement in eyebrow assessment scale at Week 28, percentage” value [2, 6] was 50%. The “Participants achieving at least 1 grade improvement in eyelash assessment scale at Week 28, percentage” value [2, 6] was 37.5%, the “Participants achieving at least 1 grade improvement in eyebrow assessment scale at Week 28, percentage” value ([2]; sublingual, 5 mg tablets, 3 months, n = 16, listed as sublingual tofacitinib) was “(50%)” and the “Total Treatment Response, proportion” value ([2]; sublingual, 5 mg tablets, Week 28 vs Week 16) was 6/16. The “Total Treatment Response, percentage” value ([2]; sublingual, 5 mg tablets, Week 28 vs Week 16, n = 16, listed as Sublingual tofacitinib) was 37.5%, the “Mean change from baseline in Assessment of Quality of Life-8D (AQoL-8D) score at Week 28” value ([2]; sublingual) was 0.0148 and the “Mean change from baseline in Assessment of Quality of Life-8D (AQoL-8D) score at Week 28” value [2, 7] was −0.0148. For the same compound, the “Mean change from baseline in Alopecia Areata Symptom Impact Scale (AASIS) score at Week 28 - Global Symptom Impact Score” value ([2]; sublingual) was 0.1306, the “Mean change from baseline in Alopecia Areata Symptom Impact Scale (AASIS) score at Week 28 - Scalp Hair Loss Score” value ([2]; sublingual) was 2.2142 and the “Mean change from baseline in Alopecia Areata Symptom Impact Scale (AASIS) score at Week 28 - Global Symptom Impact Score” value [2, 7] was −0.1306. The “Mean change from baseline in Alopecia Areata Symptom Impact Scale (AASIS) score at Week 28 - Scalp Hair Loss Score” value [2, 7] was −2.2142, the “Duration of treatment after which complete beard regrowth was achieved (mean)” value ([3]; 10 complete beard responders) was 16.0 months and the “Duration of treatment after which complete beard regrowth was achieved (range)” value ([3]; 10 complete beard responders) was 5.0-28.0 months. For the same compound, the “Men with complete beard regrowth who also achieved complete scalp hair regrowth” value ([3]; 10 complete beard responders) was 60%, the “Degree of beard regrowth Complete, number of patients” value ([3]; BAA subtype multiple patches) was 7 and the “Degree of beard regrowth None, number of patients” value ([3]; BAA subtype multiple patches) was 8. For the same compound, the “Degree of beard regrowth Partial, number of patients” value ([3]; BAA subtype multiple patches) was 9, the “Degree of beard regrowth Complete, % of patients” value [3, 8] was 15.6% and the “Degree of beard regrowth None, % of patients” value [3, 8] was 17.8%. The “Degree of beard regrowth Partial, % of patients” value [3, 8] was 20.0%, the “Degree of beard regrowth Complete, number of patients” value ([3]; BAA subtype solitary patch) was 0 and the “Degree of beard regrowth None, number of patients” value ([3]; BAA subtype solitary patch) was 2. For the same compound, the “Degree of beard regrowth Partial, number of patients” value ([3]; BAA subtype solitary patch) was 0, the “Degree of beard regrowth Complete, % of patients” value [3, 9] was 0.0% and the “Degree of beard regrowth None, % of patients” value [3, 9] was 4.5%. The “Degree of beard regrowth Partial, % of patients” value [3, 9] was 0.0%, the “Degree of beard regrowth Complete, number of patients” value ([3]; BAA subtype total beard loss) was 3 and the “Degree of beard regrowth None, number of patients” value ([3]; BAA subtype total beard loss) was 6. The “Degree of beard regrowth Partial, number of patients” value ([3]; BAA subtype total beard loss) was 10, the “Degree of beard regrowth Complete, % of patients” value [3, 10] was 6.7% and the “Degree of beard regrowth None, % of patients” value [3, 10] was 13.3%. For the same compound, the “Degree of beard regrowth Partial, % of patients” value [3, 10] was 22.2%, the “Degree of beard regrowth Complete, % of patients” value [3, 11] was 22.2% and the “Degree of beard regrowth Complete, number of patients” value [3, 11] was “Ten”. For the same compound, the “Degree of beard regrowth None, % of patients” value [3, 11] was 35.6%, the “Degree of beard regrowth None, number of patients” value [3, 11] was 16 and the “Degree of beard regrowth Partial, % of patients” value [3, 11] was 42.2%. For the same compound, the “Degree of beard regrowth Partial, number of patients” value [3, 11] was 19, the “Degree of beard regrowth Complete, number of patients” value ([3]; all patients, n = 45 (21 oral, 24 sublingual), listed as oral tofacitinib) was 10 and the “Degree of beard regrowth Complete, number of patients” value [3, 12] was 6. For the same compound, the “Degree of beard regrowth None, number of patients” value [3, 12] was 0, the “Degree of beard regrowth Partial, number of patients” value [3, 12] was 1 and the “Degree of beard regrowth Complete, % of patients” value [3, 13] was 13.3%. For the same compound, the “Degree of beard regrowth None, % of patients” value [3, 13] was 0.0%, the “Degree of beard regrowth Partial, % of patients” value [3, 13] was 2.2% and the “Degree of beard regrowth Complete, number of patients” value [3, 14] was 1. The “Degree of beard regrowth None, number of patients” value [3, 14] was 14, the “Degree of beard regrowth Partial, number of patients” value [3, 14] was 3 and the “Degree of beard regrowth Complete, % of patients” value [3, 15] was 2.2%. The “Degree of beard regrowth None, % of patients” value [3, 15] was 31.1%, the “Degree of beard regrowth Partial, % of patients” value [3, 15] was 6.7% and the “Degree of beard regrowth Complete, number of patients” value [3, 16] was 3. The “Degree of beard regrowth None, number of patients” value [3, 16] was 2, the “Degree of beard regrowth Partial, number of patients” value [3, 16] was 15 and the “Degree of beard regrowth Complete, % of patients” value [3, 17] was 6.7%. For the same compound, the “Degree of beard regrowth None, % of patients” value [3, 17] was 4.5%, the “Degree of beard regrowth Partial, % of patients” value [3, 17] was 33.3% and the “Patients with mild adverse events (upper respiratory infections, elevated liver transaminases, fatigue, acne)” value ([3]; n = 45, oral or sublingual) was 10. For the same compound, the Serious adverse events ([3]; n = 45, oral or sublingual) was “no serious adverse events”, the “SALT score post-tofacitinib, Mean ± SD” value ([3]; n = 45, oral or sublingual, pre-tofacitinib 62.0 ± 38.9) was 41.7 ± 38.5 and the “SALT score post-tofacitinib, Median (Range)” value ([3]; n = 45, oral or sublingual, pre-tofacitinib 69.0 (2.0-100.0)) was 29.0 (0.0-100.0). For the same compound, the “Complete response, number of patients” value ([3]; oral, N = 21, beard) was 0, the “No response, number of patients” value ([3]; oral, N = 21, beard) was 9 and the “Partial response, number of patients” value ([3]; oral, N = 21, beard) was 12. For the same compound, the “Complete response, number of patients” value ([3]; sublingual, n = 24, beard) was 10, the “No response, number of patients” value ([3]; sublingual, n = 24, beard) was 7 and the “Partial response, number of patients” value ([3]; sublingual, n = 24, beard) was 7. The “Number of patients who achieved tmax at 0.5 hour” value ([4]; Week 28, last dose, 15 patients) was “One”, the “Trace plasma levels prior to the last dose (range)” value ([4]; Week 28, pre-dose, 10 patient samples) was 0.5 to 10.0 ng/mL and the half-life ([4]; human, plasma, 5 mg, sublingual, Week 28 (FIG. 5b), read-out: Estimated elimination half-life (plasma concentration halving from 29.14 ng/ml to 14.6 ng/ml) (converted)) was about 11 h. It also gave a concentration at 24 h ([4]; human, plasma, 5 mg, Week 16, likely spuriously elevated by the nocte dose) of 7.39 ng/mL, a concentration at 24 h ([4]; human, plasma, 5 mg, Week 28, no nocte dose) of 0.28 ng/mL and a Tmax ([4]; human, plasma, sublingual, 5 mg tablet, read-out: Average time (tmax) to maximum plasma concentration) of 1 h. It also gave a Cmax ([4]; human, plasma, sublingual, 5 mg tablet, read-out: Maximum plasma concentration (Cmax), average) of 43.2 ng/mL.
